Measured values as given in US6974664B2, “Screening method for cancer therapeutics and stable antitumor drug” (The Board of Trustees of the Leland Stanford University, priority 2000, dated 2005).
pIC50, pKi: −log10 of the molar value.

What was measured:
Jurkat cells = experiment: Sensitization of Jurkat cells to apoptolidin by oxamate or deoxyglucose; type: cell-based
Procedure: For example, Jurkat cells planted at 40,000 cells per well and treated with 1 μM of apoptolidin show no cell death over a time period of 20 hours. […] Treatment with these amounts of oxamate alone has no effect. (Oxamate is a known inhibitor of lactate dehydrogenase; which converts pyruvate to lactate.)
Another compound known to repress the flow of glucose through the fermentative pathway is deoxyglucose which competes with glucose for this pathway but results in a dead end. […] Deoxyglucose alone at the control concentrations has no effect.

LYas cells = experiment: % killing of LYas cells with apoptolidin or oligomycin plus oxamate; type: cell-based, murine; conditions: 7 hours; for lowest concentration showing substantial killing in presence of oxamate: LYas cells 1×10^6 ml, with oxamate
Procedure: Similar results are shown in FIG. 8 for LYas cells, where cells planted at 1×10^6 ml were assessed for % killing after 7 hours when treated with various concentrations of apoptolidin or oligomycin in the presence of various concentrations of oxamate. When no apoptosis drugs are administered, there is no effect of oxamate up to a concentration of 15 mM. However, at concentrations where the oxamate alone has no effect, both oligomycin and apoptolidin were able to show substantial killing at concentrations as low as 0.1 mM.

[1] = biological target: T1, yeast mitochondrial FOF1-ATP synthase (Saccharomyces cerevisiae, UniProt P00830+P07251+P38077+P61829); experiment: Yeast mitochondrial ATPase activity assay; type: biochemical; conditions: for consumption of NADH: 80 μM oligomycin or 87 μM apoptolidin, 20 μg yeast mitochondrial protein; for pKi: yeast mitochondria, pH 8, read-out: calculated Ki, ATPase activity
T1 construct: 20 μg of yeast mitochondrial protein (as measured by the Lowry method) was added to reaction buffer; endogenous in cells; host or cells: Crude mitochondria from Saccharomyces cerevisiae strain DBY7286 grown on lactate
Procedure: The assay is that described in Example 4 hereinbelow where the combination of pyruvate kinase and LDH effect conversion of phosphoenol pyruvate to lactate in the presence of ATP and NADH. With increasing concentrations of either drug, the specific activity of the enzyme rapidly declines. The calculated Ki values for oligomycin and apoptolidin are 1 μM and 5 μM respectively. Although the observed Ki for apoptolidin is five-fold higher than that for oligomycin, this may be an underestimate of the potency of apoptolidin. […] Mitochondrial ATPase activity assays are typically performed at pH 8. Thus, the true Ki for apoptolidin may be lower than that observed herein and accounts for the observation the IC50 values for apoptolidin against both LYas as well as MCF7 cells are substantially lower than the measured Ki against mitochondrial ATPase. This difference might be explained by a preference for mammalian ATPase over yeast ATPase, or by the possibility that apoptosis via this pathway is a dominant phenotype.
Crude yeast mitochondria were isolated from a lactate grown Saccharomyces cerevisiae strain DBY7286 (mata, ura-/-) according to published procedures. Briefly, 2 L shake flasks of yeast were grown up on semisynthetic lactate medium at 30° C. with vigorous shaking to an OD600 of 3. Cells were collected at 4000 g and the wet weight of the pellet was determined. Cells were converted to spheroplasts by a 30 minute incubation at 30° C. with 2.5 mg Zymolyase 20T (ICN Biochemicals) per gram of packed cells in a volume of 2 ml per gram of packed cells in Buffer A (1.2 M sorbitol, 20 mM potassium phosphate, pH 7.4). The Zymolyase 20T was washed out twice by centrifugation at 4000 g and resuspension in Buffer A. The spheroplasts were then resuspended in Buffer B (0.6 M sorbitol, 20 mM K^+ MES, pH6.0) with 0.5 mM PMSF and homogenized in a 40 ml glass Dounce homogenizer using 15 strokes with a tight-fitting pestle. The unbroken spheroplasts were collected by centrifugation at 1500 g and rehomogenized with 15 strokes in Buffer B plus PMSF. […] The protein concentration was determined by the Lowry assay and the dark brown mitochondria were resuspended in Buffer C (0.6 M sorbitol, 20 mM HEPES, pH 7.4). Mitochondria were prepared fresh and ATPase activity was measured within 6 hours.
Mitochondrial ATPase activity was measured by standard methods. Briefly, 20 μg of yeast mitochondrial protein (as measured by the Lowry method) was added to reaction buffer containing 50 mM Tris (pH 8.0), 1 mM ATP, 0.3 mM NADH, 3.3 mM MgCl2, 2 μg/ml antimycin A, 1 mM phosphoenol pyruvate, 5 U/ml lactate dehydrogenase, and 2.5 U/ml pyruvate kinase at 28° C. […]

[2] = tested on: mouse B cell lymphoma cell line LYAS; experiment: FACS staining for annexin V, LYAS cells; type: cell-based; conditions: 6 hours incubation, read-out: IC50, percentage of annexin V+ cells
Procedure: (§1) Activity was measured by FACS staining for annexin V and by MTT assay.
The mouse B cell lymphoma cell line LYAS was incubated with apoptolidin in a compound of formula 1 for 6 hours. The treating compounds were removed and the cells were stained with annexin V-CY5PE for 15 minutes and washed 3 times. Cells were analyzed on the FACSAN and the percentage of annexin V+ cells was quantified. The IC50 of the compound of formula 1 was 10 μM; the IC50 of apoptolidin was 100 nM.

[3] = Stability by analytical reverse phase HPLC at pH 4, 7 and 10; type: physicochemical; conditions: for time structure retained: pH 4; for time remained intact / decomposition: pH 10
Procedure: Stability was monitored by an analytical reverse phase HBLC using a Beckman C18 column (4.6 mm×25 cm). Stability was analyzed in this manner at pH 4, 7 and 10, both for apoptolidin and the compound of formula 1. At pH 4, apoptolidin retained its structure for 24 hours; the compound of formula 1 for at least 28 hours when observation was terminated.

PARP = PARP cleavage in the presence of apoptolidin; type: cell-based; conditions: 1 μM apoptolidin, within 6 hours
Text: Among those cells which have high ATP requirements, aerobic cells are sensitive, while anaerobic cells are resistant.

[4] = tested on: breast carcinoma cell line MCF-7; experiment: MTT assay, MCF-7 cells; type: cell-based; conditions: Homo sapiens, MCF7; MCF-7, 120 hours
Procedure: as §1
The breast carcinoma cell line MCF-7 was tested in 96-well plates in triplicate. Dilutions of apoptolidin or the compound of formula 1 were added to the wells for 120 hours. MTT was then added to the wells at a final concentration of 0.5 mg/ml. The supernatant was removed and the crystals dissolved in 40 mM HCl and isopropanol. The plates were scanned on a microplate reader at 595 nm. The IC50 of the compound of formula 1 was 10 μM; the IC50 of apoptolidin was 90 nM.

[5] = tested on: breast carcinoma cell line MCF-7; conditions: MCF-7, MTT assay; cited from earlier work
[6] = tested on: mouse B cell lymphoma cell line LYAS; conditions: FACS staining for Annexin V; cited from earlier work

| Compound | lowest concentration showing substantial killing in presence of oxamate (LYas cells) [mM] | consumption of NADH [1] | pKi [1] | pIC50 [2] | time structure retained [3] | time remained intact / decomposition [3] | pIC50 [4] | further results |
| --- | --- | --- | --- | --- | --- | --- | --- | --- |
| O=CC[C@@H](O)[C@H](O)[C@H](O)CO [deoxyglucose, 2-deoxyglucose] |  |  |  |  |  |  |  | effect on cell death, enhancer alone (Jurkat cells; deoxyglucose alone at the control concentrations): no effect; lowest deoxyglucose concentration at which apoptolidin effects apoptosis (Jurkat cells; with 1 μM apoptolidin): 5 mM |
| COC[C@@H](C[C@H]1O[C@@](O)([C@H](O)[C@@H]2C[C@H](OC)[C@@H](O)CC/C=C(C)/C=C/[C@@H](O[C@@H]3O[C@@H](C)[C@H](OC)[C@@H](O)[C@@H]3O)[C@H](C)/C=C(C)/C=C(C)/C=C(\C)C(=O)O2)[C@H](C)[C@@H](O)[C@H]1C)OC1C[C@](C)(O)[C@@H](O[C@H]2C[C@@H](OC)[C@H](O)[C@@H](C)O2)[C@H](C)O1 (stereo partly drawn) [apoptolidin] | 0.1 | dramatically reduced | 5.30 | 7.00 | 24 h | decomposed almost immediately | 7.05 | half-life ([3]; buffer, pH 7, read-out: decomposition half-life (converted)): ~5 h; PARP cleavage (PARP): completely cleaved; cell death (Jurkat cells; 1 μM apoptolidin + 5 mM oxamate): does not dramatically change this result; time at which cell death begins (Jurkat cells; 1 μM apoptolidin + 50 mM oxamate): four; cells killed (Jurkat cells; 1 μM apoptolidin + 50 mM oxamate, by 20 hours): 95%; cell death (Jurkat cells; 1 μM apoptolidin alone, 40,000 cells per well, over 20 hours): no cell death |
| COC[C@H](O)C[C@H]1O[C@@](O)([C@H](O)[C@@H]2C[C@H](OC)[C@@H](O)CC/C=C(C)/C=C/[C@@H](O[C@@H]3OC(C)[C@H](OC)[C@@H](O)[C@@H]3O)[C@H](C)/C=C(C)/C=C(C)/C=C(\C)C(=O)O2)C(C)=C[C@H]1C (stereo partly drawn) [compound of formula 1] |  |  |  | 5.00 | at least 28 hours | at least 28 hours | 5.00 | cytotoxic activity relative to apoptolidin [5]: 1%; time remained intact ([3]; pH 7): at least 28 hours; cytotoxic activity relative to apoptolidin [6]: 1% |
| NC(=O)C(=O)O [oxamate] |  |  |  |  |  |  |  | effect on % killing, oxamate alone (LYas cells; no apoptosis drug, up to 15 mM oxamate): no effect; effect on cell death, enhancer alone (Jurkat cells; oxamate alone, 5 mM and 50 mM): no effect |
| CC[C@H]1/C=C/C=C/C[C@@H](C)[C@H](O)[C@@](C)(O)C(=O)[C@@H](C)[C@H](O)[C@@H](C)C(=O)[C@@H](C)[C@H](O)[C@@H](C)/C=C/C(=O)O[C@@H]2[C@H](C)[C@H](CC1)O[C@]1(CC[C@H](C)[C@H](C[C@@H](C)O)O1)[C@H]2C [oligomycin] | 0.1 | dramatically reduced | 6.00 |  |  |  |  |  |
